Results taken from ChEMBL document CHEMBL3885881, “DrugMatrix”.

Species on record: Rattus norvegicus
Assay: DrugMatrix - Regimen: Daily Repeat
Assay type: toxicity, organism-based, Sprague-Dawley
Set-up: regimen Daily Repeat, gender Male, age 6-8 weeks
Conditions: in vivo, po, route oral GAVAGE, […]; for ABSOLUTE BASOPHIL / ABSOLUTE EOSINOPHIL / ABSOLUTE LYMPHOCYTE / ABSOLUTE MONOCYTE / ABSOLUTE SEGMENTED NEUTROPHIL / BASOPHIL / EOSINOPHIL / ERYTHROCYTE COUNT / HEMATOCRIT / HEMOGLOBIN / LEUKOCYTE COUNT / LYMPHOCYTE / MEAN CORPUSCULAR HEMOGLOBIN / MEAN CORPUSCULAR HEMOGLOBIN CONCENTRATION / MEAN CORPUSCULAR VOLUME / MONOCYTE / NEUTROPHIL / NUCLEATED RED BLOOD CELLS / PLATELET COUNT: tissue Blood; for ALANINE AMINOTRANSFERASE / ALBUMIN / ALKALINE PHOSPHATASE / ASPARTATE AMINOTRANSFERASE / BLOOD UREA NITROGEN / CARBON DIOXIDE / CHLORIDE / CHOLESTEROL / CREATINE PHOSPHOKINASE / CREATININE / GLUCOSE / LACTATE DEHYDROGENASE / LIPASE / PHOSPHORUS / POTASSIUM / SODIUM / TOTAL BILIRUBIN / TOTAL PROTEIN / URIC ACID: tissue Plasma
[1] = 10 mg/kg, 120 h, dose level Low, time 5 day
[2] = 1100 mg/kg, 72 h, dose level High, time 3 day
[3] = 1100 mg/kg, 120 h, dose level High, time 5 day

COCCOC(=O)C1=C(C)NC(C)=C(C(=O)OC(C)C)C1c1cccc([N+](=O)[O-])c1 (centres undefined) [NIMODIPINE]
ABSOLUTE BASOPHIL [1]: 0 CELLS/uL
ABSOLUTE EOSINOPHIL [1]: 0 CELLS/uL
ABSOLUTE LYMPHOCYTE [1]: 13499.67 CELLS/uL
ABSOLUTE MONOCYTE [1]: 96.33 CELLS/uL
ABSOLUTE SEGMENTED NEUTROPHIL [1]: 1037.33 CELLS/uL
BASOPHIL [1]: 0%
EOSINOPHIL [1]: 0%
ERYTHROCYTE COUNT [1]: 5.7 x10E6/uL
HEMATOCRIT [1]: 36.23%
HEMOGLOBIN [1]: 13.9 G/DL
LEUKOCYTE COUNT [1]: 14.63 x10E3/uL
LYMPHOCYTE [1]: 92.67%
MEAN CORPUSCULAR HEMOGLOBIN [1]: 24.4 pg
MEAN CORPUSCULAR HEMOGLOBIN CONCENTRATION [1]: 38.37 G/DL
MEAN CORPUSCULAR VOLUME [1]: 63.63 fL
MONOCYTE [1]: 0.67%
NEUTROPHIL [1]: 6.67%
NUCLEATED RED BLOOD CELLS [1]: 0 /100WBC
PLATELET COUNT [1]: 940 x10E3/uL
ALANINE AMINOTRANSFERASE [1]: 59.33 u/L
ALBUMIN [1]: 4.3 G/DL
ALKALINE PHOSPHATASE [1]: 389.33 u/L
ASPARTATE AMINOTRANSFERASE [1]: 102.33 u/L
BLOOD UREA NITROGEN [1]: 15 mg/dL
CARBON DIOXIDE [1]: 31.67 mmol/L
CHLORIDE [1]: 100 MEQ/L
CHOLESTEROL [1]: 63 mg/dL
CREATINE PHOSPHOKINASE [1]: 716.33 u/L
CREATININE [1]: 0.16 mg/dL
GLUCOSE [1]: 145.33 mg/dL
LACTATE DEHYDROGENASE [1]: 194.33 u/L
LIPASE [1]: 9.33 u/L
PHOSPHORUS [1]: 10.4 mg/dL
POTASSIUM [1]: 5.95 MEQ/L
SODIUM [1]: 143.1 MEQ/L
TOTAL BILIRUBIN [1]: 0.23 mg/dL
TOTAL PROTEIN [1]: 6.2 G/DL
URIC ACID [1]: 0.83 mg/dL
ABSOLUTE BASOPHIL [2]: 0 CELLS/uL
ABSOLUTE EOSINOPHIL [2]: 0 CELLS/uL
ABSOLUTE LYMPHOCYTE [2]: 8640.33 CELLS/uL
ABSOLUTE MONOCYTE [2]: 0 CELLS/uL
ABSOLUTE SEGMENTED NEUTROPHIL [2]: 859.67 CELLS/uL
BASOPHIL [2]: 0%
EOSINOPHIL [2]: 0%
ERYTHROCYTE COUNT [2]: 6.21 x10E6/uL
HEMATOCRIT [2]: 37.2%
HEMOGLOBIN [2]: 14.77 G/DL
LEUKOCYTE COUNT [2]: 9.5 x10E3/uL
LYMPHOCYTE [2]: 91%
MEAN CORPUSCULAR HEMOGLOBIN [2]: 23.77 pg
MEAN CORPUSCULAR HEMOGLOBIN CONCENTRATION [2]: 39.7 G/DL
MEAN CORPUSCULAR VOLUME [2]: 59.87 fL
MONOCYTE [2]: 0%
NEUTROPHIL [2]: 9%
NUCLEATED RED BLOOD CELLS [2]: 0.33 /100WBC
PLATELET COUNT [2]: 1341.67 x10E3/uL
ALANINE AMINOTRANSFERASE [2]: 90 u/L
ALBUMIN [2]: 4.17 G/DL
ALKALINE PHOSPHATASE [2]: 427.67 u/L
ASPARTATE AMINOTRANSFERASE [2]: 82.67 u/L
BLOOD UREA NITROGEN [2]: 13 mg/dL
CARBON DIOXIDE [2]: 27.33 mmol/L
CHLORIDE [2]: 97.67 MEQ/L
CHOLESTEROL [2]: 77.67 mg/dL
CREATINE PHOSPHOKINASE [2]: 248.33 u/L
CREATININE [2]: 0.17 mg/dL
GLUCOSE [2]: 211.67 mg/dL
LACTATE DEHYDROGENASE [2]: 205.33 u/L
LIPASE [2]: 11.33 u/L
PHOSPHORUS [2]: 10.23 mg/dL
POTASSIUM [2]: 4.32 MEQ/L
SODIUM [2]: 139.8 MEQ/L
TOTAL BILIRUBIN [2]: 0.4 mg/dL
TOTAL PROTEIN [2]: 6.33 G/DL
URIC ACID [2]: 0.47 mg/dL
ABSOLUTE BASOPHIL [3]: 0 CELLS/uL
ABSOLUTE EOSINOPHIL [3]: 0 CELLS/uL
ABSOLUTE LYMPHOCYTE [3]: 5312.67 CELLS/uL
ABSOLUTE MONOCYTE [3]: 159.33 CELLS/uL
ABSOLUTE SEGMENTED NEUTROPHIL [3]: 1728 CELLS/uL
BASOPHIL [3]: 0%
EOSINOPHIL [3]: 0%
ERYTHROCYTE COUNT [3]: 7.19 x10E6/uL
HEMATOCRIT [3]: 42.83%
HEMOGLOBIN [3]: 16.87 G/DL
LEUKOCYTE COUNT [3]: 7.2 x10E3/uL
LYMPHOCYTE [3]: 75.67%
MEAN CORPUSCULAR HEMOGLOBIN [3]: 23.43 pg
MEAN CORPUSCULAR HEMOGLOBIN CONCENTRATION [3]: 39.33 G/DL
MEAN CORPUSCULAR VOLUME [3]: 59.63 fL
MONOCYTE [3]: 2%
NEUTROPHIL [3]: 22.33%
NUCLEATED RED BLOOD CELLS [3]: 0 /100WBC
PLATELET COUNT [3]: 1410 x10E3/uL
ALANINE AMINOTRANSFERASE [3]: 65.33 u/L
ALBUMIN [3]: 4 G/DL
ALKALINE PHOSPHATASE [3]: 160 u/L
ASPARTATE AMINOTRANSFERASE [3]: 89.33 u/L
BLOOD UREA NITROGEN [3]: 43.67 mg/dL
CARBON DIOXIDE [3]: 34.33 mmol/L
CHLORIDE [3]: 84 MEQ/L
CHOLESTEROL [3]: 75 mg/dL
CREATINE PHOSPHOKINASE [3]: 283.67 u/L
CREATININE [3]: 0.22 mg/dL
GLUCOSE [3]: 198.67 mg/dL
LACTATE DEHYDROGENASE [3]: 180 u/L
LIPASE [3]: 12.33 u/L
PHOSPHORUS [3]: 9.97 mg/dL
POTASSIUM [3]: 3.85 MEQ/L
SODIUM [3]: 133.83 MEQ/L
TOTAL BILIRUBIN [3]: 0.3 mg/dL
TOTAL PROTEIN [3]: 6.2 G/DL
URIC ACID [3]: 0.3 mg/dL
